Measurements reported in PMC5608352, “Formyl peptide derived lipopeptides disclose differences between the receptors in mouse and men and call the pepducin concept in question” (PLoS ONE, 2017).
“Also recorded” adds a separate entry of the source. Each block holds one compound with its values, some of them ahead of it. Residues, ends and D or L forms follow the SMILES beside them. *: point of attachment. Palmitoyl = CCCCCCCCCCCCCCCC(=O)*

What was measured:
mouse neutrophils [1] = biological target: T1, mouse neutrophils (Mus musculus, UniProt O88536); assay: Direct activation: superoxide release (isoluminol/HRP chemiluminescence), WT mouse bone marrow neutrophils; format: cell-based; conditions: for EC50: approximate value given in running text
T1 sequence (O88536 1-351): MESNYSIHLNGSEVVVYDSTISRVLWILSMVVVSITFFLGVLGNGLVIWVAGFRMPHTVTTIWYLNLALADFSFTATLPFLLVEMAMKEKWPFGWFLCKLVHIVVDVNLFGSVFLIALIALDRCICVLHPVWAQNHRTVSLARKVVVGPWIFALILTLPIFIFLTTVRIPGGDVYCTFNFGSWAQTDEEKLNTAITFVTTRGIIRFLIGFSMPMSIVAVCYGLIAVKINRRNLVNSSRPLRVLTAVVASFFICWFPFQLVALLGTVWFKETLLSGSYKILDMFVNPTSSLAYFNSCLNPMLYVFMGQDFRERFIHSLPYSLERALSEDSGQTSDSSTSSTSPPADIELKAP
Excerpt: (§1) Mice (8–12 weeks of age) were killed by cervical dislocation, the femurs and tibias were removed and freed of soft tissue attachments, and the extreme distal tip of each extremity was cut off. KRG without Ca^2+ and Mg^2+ (KRG-) was forced through the bone by using a 1-mL syringe with a 27-gauge needle. After dispersing cell clumps and removing the debris, the bone marrow granulocytes were isolated according to an earlier described procedure with some modifications. Briefly, a cell suspension in 2 mL of KRG- was laid on top of a three-layer Percoll gradient (1.095, 1.085, and 1.070 g/mL). The density of each Percoll solution was verified using density marker beads. After centrifugation at 500 × g for 30 min at 4°C in a swinging bucket rotor, the lowest band (1.085/1.095 g/mL interface) was collected as the neutrophil fraction. After washing with KRG-, remaining red blood cells were eliminated by hypotonic lysis. After a final wash with KRG-, the cells were resuspended in KRG. The cell number and population of bone marrow cells were determined by flow cytometry based on forward scatter (size) and side scatter (density) localization.
(§2) NADPH-oxidase activity was determined using an isoluminol and HRP-enhanced chemiluminescence (CL) system that allow for the determination of superoxide production. The CL activity was measured in a six-channel Biolumat LB 9505 apparatus (Berthold Co., Wildbad, Germany), using disposable 4-mL polypropylene tubes with 1 mL reaction mixture. The tubes contained 4 U HRP and 10 μg/mL isoluminol together with the cells that were equilibrated in the Biolumat for 5 min at 37°C, after which the stimulus solution (100 μL) was added. The light emission was recorded continuously over time and presented as superoxide production (in arbitrary light units, cpm x10^-6) as a function of time (min). The activity before stimulus addition was recorded as basal line and this activity was not changed in vehicle control samples. Since the FPR/Fpr-mediated superoxide production with respect to the onset and decline are very similar, the peak activities were used to compare the responses induced.
Naïve bone marrow cells produce very low levels of superoxide upon stimulation and to increase this production the cells were routinely primed for one hour at RT followed by TNF-α (10 ng/mL, final concentration) priming for a period of 20 min at 37°C [10]. The cells were then kept on ice until further analysis, as described above. The reason for choosing the chemiluminescence based NADPH-oxidase assay system was that very few cells are required, allowing us to monitor and quantify receptor-mediated events with the limited number of mouse bone marrow neutrophils available.
Data analysis was performed using Graph Pad Prism 7.0. The EC50/IC50 values were determined from experiments in which the activities were normalized to the response induced by maximal response or induced by agonist in the absence of inhibitor. The statistical analysis was performed on raw data using Student’s t-test when two groups were compared or one-way ANOVA with Dunnett’s multiple comparisons test in comparison to the control response when three groups were compared. * p ≤ 0.05 was considered significant.

mouse neutrophils [2] = biological target: T1, mouse neutrophils; assay: Receptor (cross-)desensitization, superoxide release, WT mouse neutrophils; format: cell-based; conditions: then pepducin 1 μM
Experimental: NADPH-oxidase activity was determined using an isoluminol and HRP-enhanced chemiluminescence (CL) system that allow for the determination of superoxide production [29, 30]. The CL activity was measured in a six-channel Biolumat LB 9505 apparatus (Berthold Co., Wildbad, Germany), using disposable 4-mL polypropylene tubes with 1 mL reaction mixture. The tubes contained 4 U HRP and 10 μg/mL isoluminol together with the cells that were equilibrated in the Biolumat for 5 min at 37°C, after which the stimulus solution (100 μL) was added. The light emission was recorded continuously over time and presented as superoxide production (in arbitrary light units, cpm x10^-6) as a function of time (min). […] Since the FPR/Fpr-mediated superoxide production with respect to the onset and decline are very similar, the peak activities were used to compare the responses induced.
The release of superoxide anions was continuously measured. […]

human neutrophils = assay: Direct activation: superoxide release (isoluminol/HRP chemiluminescence), human neutrophils; format: cell-based; conditions: 10^5 cells, 37°C, isoluminol/HRP CL, pepducin 1 μM
Excerpt: (§3) Human peripheral blood neutrophils were isolated from buffy coats from healthy blood donors using dextran sedimentation and Ficoll-Paque gradient centrifugation as described. The remaining erythrocytes were disrupted by hypotonic lysis and the neutrophils were washed twice, suspended in KRG and, stored on melting ice until use. This isolation process permits cells to be purified with minimal granule mobilization. The buffy coats were obtained from the blood bank at Sahlgrenska University Hospital. Ethics approval was not needed since the buffy coats were provided anonymously and could not be traced back to a specific individual. This is in line with Swedish legislation section code 4§ 3p SFS 2003:460 (Lag om etikprövning av forskning som avser människor).
(§4) NADPH-oxidase activity was determined using an isoluminol and HRP-enhanced chemiluminescence (CL) system that allow for the determination of superoxide production. The CL activity was measured in a six-channel Biolumat LB 9505 apparatus (Berthold Co., Wildbad, Germany), using disposable 4-mL polypropylene tubes with 1 mL reaction mixture. […] The light emission was recorded continuously over time and presented as superoxide production (in arbitrary light units, cpm x10^-6) as a function of time (min). The activity before stimulus addition was recorded as basal line and this activity was not changed in vehicle control samples. […]

FPR1 = assay: Inhibition of fMLF-induced superoxide release, human neutrophils; format: cell-based; conditions: pepducin 1 μM; fMLF 50 nM
Excerpt: as §3, §4

Fpr2 [3] = biological target: T2, Fpr2 (Mus musculus, UniProt O88536); assay: Receptor preference in mouse neutrophils (Fpr2 versus Fpr1); format: cell-based; conditions: conclusion from superoxide release, Fpr2^-/- cells, desensitization and inhibitors
T2 construct: WT mouse neutrophils (5 x 10^4 cells) were pre-incubated without (solid line) or with mF2Pal16; endogenous in cells; host or cells: bone marrow neutrophils of C57BL/6 wild-type mice, TNF-alpha primed
T2 sequence (O88536 1-351): T1 sequence (O88536 1-351)
Excerpt: (§5) C57BL/6 wild-type mice were purchased from Charles River Laboratories and Fpr2^−/− mice generated as described previously, were generously provided by Dr Ji Ming Wang, Frederick National Laboratory for Cancer Research, USA. Mice were kept under standard temperature and light conditions and fed laboratory chow and water ad libitum, at the Department of Rheumatology and Inflammation Research, University of Gothenburg. Sex matched WT and Fpr2^-/- animals (age 8–10 weeks) were used to isolated bone marrow derived neutrophils. The studies performed were approved by the Ethical Committee for Animal Experimentation, Göteborg, Sweden.
(§6) Mice (8–12 weeks of age) were killed by cervical dislocation, the femurs and tibias were removed and freed of soft tissue attachments, and the extreme distal tip of each extremity was cut off. […] The cell number and population of bone marrow cells were determined by flow cytometry based on forward scatter (size) and side scatter (density) localization.
(§7) NADPH-oxidase activity was determined using an isoluminol and HRP-enhanced chemiluminescence (CL) system that allow for the determination of superoxide production. The CL activity was measured in a six-channel Biolumat LB 9505 apparatus (Berthold Co., Wildbad, Germany), using disposable 4-mL polypropylene tubes with 1 mL reaction mixture. […]

FPR2 [4] = biological target: T3, FPR2 (Homo sapiens, UniProt P25090); assay: Inhibition of WKYMVM-induced superoxide release, human neutrophils; format: cell-based; conditions: pepducin 1 μM pre-incubated (mF2Pal16, F1Pal16: 5 min); WKYMVM 50 nM
T3 construct: Human peripheral blood neutrophils were isolated from buffy coats from healthy blood donors; endogenous in cells; host or cells: human peripheral blood neutrophils from buffy coats of healthy donors
T3 sequence (P25090 1-351): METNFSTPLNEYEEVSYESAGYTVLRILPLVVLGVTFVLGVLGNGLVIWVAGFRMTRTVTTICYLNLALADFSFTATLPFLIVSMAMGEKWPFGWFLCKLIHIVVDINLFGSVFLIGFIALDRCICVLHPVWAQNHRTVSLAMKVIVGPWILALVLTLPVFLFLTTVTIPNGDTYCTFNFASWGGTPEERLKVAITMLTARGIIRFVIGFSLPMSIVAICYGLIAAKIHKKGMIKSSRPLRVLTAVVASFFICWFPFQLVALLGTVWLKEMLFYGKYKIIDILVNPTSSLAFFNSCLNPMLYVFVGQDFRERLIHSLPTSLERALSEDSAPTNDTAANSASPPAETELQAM
Excerpt: as §3
as §2, with “Since the FPR/Fpr-mediated superoxide production with respect to the onset and decline are very similar, the peak activities were used to compare the responses induced.” left out
(§8) Data analysis was performed using Graph Pad Prism 7.0. The EC50/IC50 values were determined from experiments in which the activities were normalized to the response induced by maximal response or induced by agonist in the absence of inhibitor. […]
Human neutrophils (10^5 cells) were pre-incubated without (solid line) or with mF2Pal16 (1 μM) for 5 min before stimulation with A) the FPR2 specific agonist WKYMVM (50 nM, indicated by the arrow). […] The release of superoxide anions was measured continuously. […]

Fpr2^-/- neutrophils = assay: Direct activation: superoxide release, Fpr2^-/- mouse neutrophils compared with WT; format: cell-based
Excerpt: as §5, §6, §7

FPR2 [5] = assay: Receptor preference in human neutrophils (FPR2 versus FPR1); format: cell-based; conditions: conclusion from superoxide release experiments
Excerpt: as §3, §4

Fpr2 [6] = biological target: T2, Fpr2; assay: Inhibition of F2Pal16-induced superoxide release, WT mouse neutrophils; format: cell-based; conditions: Boc2 2 μM or peptidomimetic inhibitor 1 μM (five experiments), or mF2Pal16 500 nM against F2Pal16 500 nM (three experiments); 5 min pre-incubation
Excerpt: as §1, §4, §8

Fpr2 [7] = biological target: T2, Fpr2; set-up: method as in PMID 27614010; conditions: ref [12]; cited from earlier work
Excerpt: When looking at the FPRs in different species it is clear that the receptor family has a complex evolutionary history, as illustrated by the fact that the number of genes in the family vary markedly in mouse and man. […] As different mouse models constitute important tools for translational studies aiming to understa ... || Genetically modified mouse strains and mouse disease models provide excellent tools to study the function of neutrophil FPRs in vivo. Such studies have indicated Fprs (in particular Fpr2) as important regulators of the physiological processes leading to resolution of inflammation. However, a direct translation of mouse data to human studies is hampered due to the distant phylogenetic relationship between mouse and human receptors. In addition to the different number of Fpr genes in mice and humans and an incomplete understanding of the evolutionary relationship between human FPRs ...

Compound: CCCCCCCCCCCCCCCC(=O)N[C@@H](CCCCN)C(=O)N[C@H](C(=O)N[C@@H](Cc1c[nH]cn1)C(=O)N[C@@H](CCCCN)C(=O)N[C@@H](CCC(N)=O)C(=O)NCC(=O)N[C@@H](CC(C)C)C(=O)N[C@H](C(=O)N[C@@H](CCCCN)C(=O)N[C@@H](CO)C(=O)N[C@@H](CO)C(=O)N[C@@H](CCCNC(=N)N)C(=O)N1CCC[C@H]1C(=O)N[C@@H](CC(C)C)C(=O)N[C@@H](CCCNC(=N)N)C(=O)N[C@H](C(=O)O)C(C)C)[C@@H](C)CC)[C@@H](C)CC [F1Pal16] (Palmitoyl-KIHKQGLIKSSRPLRV-OH)
- EC50 (mouse neutrophils [1]): ~300 nM

Compound: CCCCCCCCCCCCCCCC(=O)N[C@@H](CCCCN)C(=O)N[C@H](C(=O)N[C@@H](Cc1c[nH]cn1)C(=O)N[C@@H](CCCCN)C(=O)N[C@@H](CCCCN)C(=O)NCC(=O)N[C@@H](CCSC)C(=O)N[C@H](C(=O)N[C@@H](CCCCN)C(=O)N[C@@H](CO)C(=O)N[C@@H](CO)C(=O)N[C@@H](CCCNC(=N)N)C(=O)N1CCC[C@H]1C(=O)N[C@@H](CC(C)C)C(=O)N[C@@H](CCCNC(=N)N)C(=O)N[C@H](C(=O)O)C(C)C)[C@@H](C)CC)[C@@H](C)CC [F2Pal16] (Palmitoyl-KIHKKGMIKSSRPLRV-OH)
- EC50 (mouse neutrophils [1]): ~300 nM

Compound: CCCCCCCCCCCCCCCC(=O)N[C@@H](CCCCN)C(=O)N[C@H](C(=O)N[C@@H](Cc1c[nH]cn1)C(=O)N[C@@H](CCCNC(=N)N)C(=O)N[C@@H](CCC(N)=O)C(=O)NCC(=O)N[C@@H](CC(C)C)C(=O)N[C@H](C(=O)N[C@@H](CCCCN)C(=O)N[C@@H](CO)C(=O)N[C@@H](CO)C(=O)N[C@@H](CCCNC(=N)N)C(=O)N1CCC[C@H]1C(=O)N[C@@H](CC(C)C)C(=O)N[C@@H](CCCNC(=N)N)C(=O)N[C@H](C(=O)O)C(C)C)[C@@H](C)CC)[C@@H](C)CC [mF1Pal16] (Palmitoyl-KIHRQGLIKSSRPLRV-OH; N-terminus and C-terminus assumed)
- response to second stimulation after PSMα2 (mouse neutrophils [2]; first PSMα2 50 nM): non-responsive to a second stimulation
- response to second stimulation after fMIFL (mouse neutrophils [2]; first fMIFL 10 nM): not fMIFL-stimulated cells were non-responsive
- superoxide release / activation of human neutrophils (human neutrophils): Human neutrophils were not activated; also recorded: does not activate human neutrophils to produce superoxide
- effect on fMLF response, human neutrophils (FPR1): did not affect the response
- receptor preference / modulation of Fpr2 (versus Fpr1) in mouse neutrophils (Fpr2 [3]): activates primarily Fpr2 in mouse neutrophils; also recorded: positively target the mouse Fpr2; also recorded: can act as an agonist for Fpr2
- effect on WKYMVM response, human neutrophils (FPR2 [4]): inhibited the response
- superoxide release in Fpr2^-/- neutrophils compared with WT (Fpr2^-/- neutrophils; pepducin 1 μM, % of peak fMIFL (10 nM) response, p ≤ 0.05 significant): not abolished but significantly reduced
- superoxide release / activation of WT mouse neutrophils (mouse neutrophils [1]; WT mouse (C57BL/6) bone marrow neutrophils, TNF-α primed, 5 x 10^4 cells, 37°C, isoluminol/HRP CL, peak activity, pepducin 1 μM in figures): triggered activation of the NADPH-oxidase in mouse neutrophils
- relative potency, activation of WT mouse neutrophils (mouse neutrophils [1]; compared in words with derivatives or other pepducins, 1 μM in Figs 3, 6C, % of fMIFL (10 nM) peak, three independent experiments): much lower EC50 value as compared to that of F1Pal16
- receptor preference / modulation of FPR2 (versus FPR1) in human neutrophils (FPR2 [5]): very similar activities but with somewhat different potency; also recorded: preference for FPR2 over FPR1; also recorded: inhibits the FPR2 activity in human neutrophils; also recorded: negatively target human FPR2

- effect of inhibitor on F2Pal16 response, WT mouse neutrophils (Fpr2 [6]): significantly reduced
Compound: Lau-(Lys-βNSpe)6-NH2

Compound: WKYMVM [FPR2 specific agonist]
- activity at mouse Fprs (earlier work) (Fpr2 [7]): low affinity for their mouse orthologous

Compound: fMIFL [reference compound]
- activity at mouse Fprs (earlier work) (Fpr2 [7]): potently and selectively activate Fpr1
- fMIFL superoxide response in Fpr2^-/- versus WT neutrophils (Fpr2^-/- neutrophils; fMIFL 10 nM, reference response): comparable in WT and Fpr2 deficient neutrophils

Compound: fMLF
- activity at mouse Fprs (earlier work) (Fpr2 [7]): low affinity for their mouse orthologous
